# Test results taken from patent US20130237452A1, “Screening method for selecting plants that show a reduced wound-induced surface discolouration” (RIJK ZWAAN ZAADTEELT EN ZAADHANDEL B.V., priority 2006, published 2013).
# Entries after “also recorded” stand apart in the source; their conditions may differ.
# Tests used:
# [1] = test system: seeds of lettuce; experiment: L-DOPA assay on seeds
# Experimental: (§1) Seeds of lettuce and eggplant were incubated with 0, 2.5 and 5 mM L-DOPA. […] The response is PPO-dependent because it can be inhibited with L-cysteine.
# [2] = test system: seeds of eggplant; experiment: L-DOPA assay on seeds
# Experimental: as §1
# [3] = test system: PPO; experiment: L-DOPA leaf disc assay: black discolouration (melanin) at wound surface; format: cell-based, lettuce
# Experimental: In addition to assays which address wound-induced discolouration in a broad sense, the method according to this invention also allows to screen in a more specific manner for mutants which have a reduced PPO activity. A phenotypic assay which is indicative for PPO activity was developed by using leaf discs which were incubated in the presence of 1.5 mM L-DOPA. […] Furthermore, it was shown that the reaction can be inhibited by adding 1 mM L-cysteine during the reaction (FIG. 5). Therefore, this assay enabled the identification of mutants which are modified in the ability to mount a PPO activity at a wound surface of a leaf. The response of lettuce leaf discs to the presence of L-DOPA can be observed both in solution as well as between wetted filter papers as shown in FIG. 13.
# [4] = test system: germinated seeds of lettuce; experiment: L-DOPA assay on germinated seeds
# Experimental: Germinated seeds of lettuce were incubated with L-DOPA. […] This colour reaction can be used for screening seeds that show a reduced discolouration.
# [5] = treatment of the formed pink dye after the wound response was completed; parameters: species or system lettuce; details: added after the wound response was completed; 0-10 mM series for L-cysteine
# Experimental: (§2) As L-cysteine is known to react with o-quinones, which are PPO products, by converting them back into colourless diphenols, the effects of L-cysteine on the pink dye coming from lettuce leaf discs was determined. In parallel the effect of L-cysteine was determined on the melanin formation upon incubation with L-DOPA. Leaf discs were taken and incubated according to the procedures described above. After the wound response was completed, a concentration series of L-cysteine was added to the leaf disc and the change in colour was monitored.
# [6] = test system: lettuce seeds; experiment: catechol assay on seeds
# Experimental: Lettuce seeds were incubated with 0, 100, 250, 500, 750 and 1000 mg/L catechol.
# [7] = test system: lettuce leaf discs; experiment: leaf disc pinking assay: wound-induced pink discolouration between wetted filter papers; format: cell-based; details: for concentration at which the pink discolouration was completely inhibited: applied during the assay, 5° C. for 7 days; for effect on formation of the pink dye (pinking response): applied during the reaction
# Experimental: A phenotypic assay was developed in which leaf discolouration of lettuce induced by wounding can readily be assessed. This approach allows young plant screening for discolouration. Leaf discs of 5 mm diameter were taken from young or mature plants and placed between wetted filter papers in a tray. The system was incubated at 5° C. for 7 days. During the incubation a pink dye developed at the wound site of the leaf disc which became clearly visible as a printed circle on the filter paper (FIG. 2).
# [8] = test system: field-grown lettuce plant showing severe pinking symptoms; experiment: pinking of leaf discs from field-grown lettuce; details: 1 mM, approximately 30 minutes at room temperature
# Experimental: This is typically observed when plants have been stressed, for example by conditions of severe water logging. The leaf was used to prepare leaf discs which were incubated immediately by 1 mM L-cysteine.
# [9] = test system: leaf discs of lettuce; experiment: chlorogenic acid assay on leaf discs; format: cell-based
# Experimental: Leaf discs of lettuce were incubated with 10 mM chlorogenic acid on filter paper.
# [10] = treatment of melanin formed in the L-DOPA assay after the response was completed; parameters: species or system lettuce; details: added after the response was completed; 0-10 mM series
# Experimental: as §2
# [11] = test system: lettuce outer leaf midrib tissue discs; experiment: midrib disc / cut leaf browning assay; format: cell-based
# Experimental: A further embodiment of this invention is based on the following experiment. Parts of a lettuce leaf of a head are produced by cutting and incubated at 16° C. in air. As a response the wound surface turns brown after approximately 4 days. Especially at the wound surface of the main vein the browning can clearly be observed. Furthermore, the browning reaction can also be observed at the whole plant level upon damaging leaves by cutting or abrasion. Lettuce plants were grown to maturity and parts of outer leaves were taken by cutting discs from the rib tissue. The discs were incubated on wetted filter paper at 16° C. After approximately 72 hours, the wound surface had turned brown.
compound,measurement,setting,value
"N[C@@H](Cc1ccc(O)c(O)c1)C(=O)O [L-DOPA, L-3,4-dihydroxyphenylalanine]",colour reaction of seeds with the substrate,"[1]; 0, 2.5 and 5 mM",concentration dependent
same,colour reaction of seeds with the substrate,"[2]; 0, 2.5 and 5 mM",concentration dependent
same,discolouration at the wound surface on incubation with the substrate,[3]; 1.5 mM L-DOPA,dark brown to black discolouration
same,colour reaction of seed coat and root zone with the substrate,[4],show a colour reaction
O=C1O[C@H]([C@@H](O)CO)C(O)=C1O [ascorbic acid],effect on the already formed pink dye,[5],convert the pink dye into a colourless compound
Oc1ccccc1O [catechol],colour response of seeds with the substrate,"[6]; 0, 100, 250, 500, 750 and 1000 mg/L",concentration dependent colour response
N[C@@H](CCC(=O)N[C@@H](CS)C(=O)NCC(=O)O)C(=O)O [glutathion],effect on the already formed pink dye,[5],convert the pink dye into a colourless compound
N[C@@H](CS)C(=O)O [L-cysteine],effect on L-DOPA colour response of seeds,[1],inhibited
same,effect on L-DOPA colour response of seeds,[2],inhibited
same,concentration at which the pink discolouration was completely inhibited,[7],≥ 0.001%
same,effect on formation of the pink dye (pinking response),[7],strongly suppressed
same,effect on pink discolouration of field-grown leaf material,[8],pink discolouration disappeared; also recorded: eliminated
same,effect on black L-DOPA discolouration,[3]; applied simultaneously with L-DOPA,completely inhibited
same,effect on the already formed pink dye,[5],converting the pink dye back into a colourless compound; also recorded: converted into a colourless compound
same,effect on chlorogenic acid induced colour,[9]; added to discs incubated with 10 mM chlorogenic acid,the colour disappeared again
same,effect on already formed black melanin,[10],not affected
same,effect on catechol colour response of seeds,[6],inhibited
same,effect on browning response of midrib discs,"[11]; 10 mM, 16° C., approximately 72 hours",inhibited
same,"effect on wound-induced browning reactions (cut leaf parts, whole plant)","[11]; 16° C. in air, concentration not given",completely be inhibited
O=CC=Cc1ccccc1 [cinnamaldehyde],concentration at which the pink discolouration was completely inhibited,[7],≥ 0.01%
same,effect on formation of the pink dye (pinking response),[7],inhibited
C[C@H](N)C(=O)O [L-alanine],effect on formation of the pink dye (pinking response),[7],did not show any effect
O=C(/C=C/c1ccc(O)c(O)c1)O[C@@H]1C[C@](O)(C(=O)O)C[C@@H](O)[C@H]1O [chlorogenic acid],discolouration of discs on incubation with the substrate,[9]; 10 mM on filter paper,browning
CC(C)C[C@H](N)C(=O)O [L-leucine],effect on formation of the pink dye (pinking response),[7],did not show any effect
